Results: patent US20120329770A1, “CEPHALOSPORIN DERIVATIVES USEFUL AS BETA-LACTAMASE INHIBITORS AND COMPOSITIONS AND METHODS OF USE THEREOF” (priority 2010, published 2012)
Like-named read-outs stand apart in the source and are kept apart here.

Legend:
[1] = test system: Chryseobacterium meningosepticum IS 5824; experiment: Antimicrobial MIC / checkerboard assay for synergy with meropenem; assay type: cell-based; details: C. meningosepticum IS 5824; meropenem + compound, checkerboard
Protocol: (§1) Assays were conducted as described by Weigand et al. (Weigand, I.; Hilpert, K.; Hancock, R. E. Nat. Protocols 2008, 3, 163-175).
(§2) To determine the lowest concentration of an antimicrobial agent that inhibits visible growth of a microorganism, 50 μL of compound solution and 50 μL of buffer solution were added to each well at the desired concentration(s) (i.e. 4×the final concentration) as well as a zero control. Stock solutions of 10 mg/mL, were prepared in DMSO, followed by two-fold serial dilutions in Müeller-Hinton media and 100 μL of bacteria (ca. 5×10^5 CFU/mL) was added to each well. Plate counts were performed on the control wells to determine bacterial innoculum level. The innoculum was prepared by taking an overnight culture in Müeller-Hinton media and diluting to McFarland's 0.5 standard, and diluting a further 1:100 prior to addition to the plate. Lanes with no bacteria added served as sterility controls and lanes with no compound served as growth controls. Organisms were allowed to grow overnight at 37° C. in a humid environment and the plates were monitored at 625 nm for growth. MIC was determined to be the last well with no growth.
(§3) In the checkerboard assay one compound is serially diluted along the ordinate, and the second compound is serially diluted along the abscissa. […] A 50 μL aliquot of the compound was added to each well at the desired concentration(s) (i.e. 4×the final concentration) as well as a zero control. Stock solutions of 10 mg/mL of compound were prepared in DMSO, followed by two-fold serial dilutions in Müeller-Hinton media. Finally, 100 μL of bacteria (ca. 5×10^5 CFU/mL) was added to each well. Plate counts were performed on the control wells. Innoculum was prepared by taking an overnight culture in Müeller-Hinton media and diluting to McFarland's 0.5 standard, and diluting a further 1:100 prior to addition to the plate. Lanes with no bacteria added served as sterility controls and lanes with no meropenem or compound served as growth controls. The final volume in each well was 200 μL. The plates were allowed to grow overnight at 37° C. in a humid environment and were monitored at 625 nm for growth. […] Sterility controls and growth controls were included on each plate. The fractional inhibitory concentration (FIC) was determined as follows:
(§4) Results were interpreted in the following way: Synergistic if FIC≦0.5; Additive if […]; Indifferent if […]; Antagonistic if FIC≧2.0.

[2] = test system: Pseudomonas aeruginosa C-10; experiment: as above; assay type: cell-based; details: P. aeruginosa C-10; meropenem + compound, checkerboard
Protocol: as §1, §2, §3, §4

[3] = test system: Pseudomonas aeruginosa IS 6225; experiment: as above; assay type: cell-based; details: P. aeruginosa IS 6225, meropenem + compound
Protocol: as §1, §2, §3, §4

[4] = test system: Stenotrophomonas maltophilia IS 6069; experiment: as above; assay type: cell-based; details: S. maltophilia IS 6069, meropenem + compound
Protocol: as §1, §2, §3, §4

[5] = test system: Stenotrophomonas maltophilia IS 6081; experiment: as above; assay type: cell-based; details: S. maltophilia IS 6081, meropenem + compound
Protocol: as §1, §2, §3, §4

[6] = test system: Pseudomonas aeruginosa IS 5563; experiment: as above; assay type: cell-based; details: P. aeruginosa IS 5563; meropenem + compound, checkerboard
Protocol: as §1, §2
as §3, with “Lanes with no bacteria added served as sterility controls and lanes with no meropenem or compound served as growth controls.” left out
as §4

[7] = test system: Stenotrophomonas maltophilia IS 5568; experiment: as above; assay type: cell-based; details: S. maltophilia IS 5568; meropenem + compound, checkerboard
Protocol: as §1, §2
as §3, with “Lanes with no bacteria added served as sterility controls and lanes with no meropenem or compound served as growth controls.” left out
as §4

[8] = target: T1, IMP-1 (Serratia marcescens, UniProt P52699); experiment: Sensitivity of IMP-1 to proteolysis by trypsin after incubation with inhibitor; assay type: biochemical; details: incubation of IMP-1 with inhibitor
T1 construct: made in house; host or cells: Escherichia coli BL21(DE3) carrying pCIP4
T1 sequence (P52699 19-246 limits assumed): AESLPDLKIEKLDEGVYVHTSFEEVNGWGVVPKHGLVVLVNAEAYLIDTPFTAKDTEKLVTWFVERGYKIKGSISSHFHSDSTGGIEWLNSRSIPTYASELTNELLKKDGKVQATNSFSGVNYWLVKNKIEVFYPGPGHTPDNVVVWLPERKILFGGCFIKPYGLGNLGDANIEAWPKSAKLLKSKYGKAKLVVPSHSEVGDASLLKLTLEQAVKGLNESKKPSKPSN

[9] = test system: β-lactamases; experiment: β-Lactamase inhibition, result in words; assay type: biochemical
Excerpt: In preferred embodiments, the compounds incorporate a good leaving group at the C3′ carbon that can be readily expelled as an anion. In some embodiments, the leaving group is a C3′-benzoylthio group, which may be substituted or unsubstituted, according to the definitions provided above for substituted or unsubstituted.
This effect correlates with the expected better leaving group ability of the benzoylthio group in the hydrolysis product versus the benzoate group in the comparative compound.

[10] = target: T2, class A β-lactamase KPC-2 (Klebsiella pneumoniae, UniProt Q9F663); experiment: Inhibition of β-lactamases, nitrocefin hydrolysis; assay type: biochemical; details: nitrocefin 100 μM, 10 min pre-incubation
T2 construct: calculated for a mature protein with a 24 amino acid signal peptide removed; made in house; host or cells: Escherichia coli DH5α (pBR322-catI-blaKPC-2)
T2 sequence (Q9F663 25-293, looked up): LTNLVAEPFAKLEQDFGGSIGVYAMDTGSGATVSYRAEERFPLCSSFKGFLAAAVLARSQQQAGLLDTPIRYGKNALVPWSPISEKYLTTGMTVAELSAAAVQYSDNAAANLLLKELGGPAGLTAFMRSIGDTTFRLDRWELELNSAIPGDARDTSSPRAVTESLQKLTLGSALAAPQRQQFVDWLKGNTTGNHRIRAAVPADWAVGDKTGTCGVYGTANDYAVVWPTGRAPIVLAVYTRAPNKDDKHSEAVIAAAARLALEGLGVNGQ
Protocol: The KPC-2 β-lactamase was purified from Escherichia coli DH5α strain containing the plasmid, pBR322-catI-blaKPC-2, which was kindly provided by Prof. F. van den Akker (Case Western Reserve University). Expression and purification of the enzyme was similar to that reported by Ke et al. (Biochemistry 2007, 46, 5732-5740). A molecular weight of 28,472 Da for the purified KPC-2 was determined by ESI MS. This is in close agreement with that calculated for a mature protein with a 24 amino acid signal peptide removed.
(§5) Assay conditions for IC50 determinations involved enzyme concentrations ranging between 2 and 6 nM. The concentration used for the nitrocefin substrate was 100 μM. Assays with OXA-10 and OXA-45 were conducted at pH 7.0 with 100 mM sodium phosphate buffer containing 25 mM sodium bicarbonate. Assays with KPC-2 and GC1 were performed at pH 7.0 in 50 mM HEPES buffer and assays with IMP-1 and VIM-2 were performed in the same buffer with the addition of 500 mM NaCl and 1 μM ZnSO4. BSA was used with all enzymes (except OXA-10 and KPC-2) at concentrations of 0.5-1.0 μg/mL.
(§6) Inhibitors were pre-incubated for 10 minutes at room temperature with enzyme assay solutions prior to the addition of the nitrocefin. […] Enzymatic activity was determined using the initial rate of increase in absorbance at 482 nm

[11] = target: T3, IMP-1 metallo-β-lactamase (Serratia marcescens, UniProt P52699); experiment: Inhibition of β-lactamases, nitrocefin hydrolysis; assay type: biochemical
T3 construct: made in house; host or cells: Escherichia coli BL21(DE3) carrying pCIP4
T3 sequence (P52699 19-246, looked up): as the sequence (P52699 19-246 limits assumed) above
Excerpt: IMP-1 metallo-β-lactamase was expressed in Esherichia coli BL21(DE3) carrying pCIP4 and purified as reported by Laraki et al. (Antimicrob. Agents Chemother. 1999, 43, 902-906). The homogeneity of the protein was confirmed by SDS-PAGE according to the method of Laemmli (Nature 1970, 227, 680-685). The molecular weight of purified IMP-1, Mr=25,112±0.5 Da, as determined by ESI-MS, was in agreement with that deduced from its amino acid sequence (Laraki et al. Antimicrob. Agents Chemother. 1999, 43, 890-901).
as §5
(§7) Inhibitors were pre-incubated for 10 minutes at room temperature with enzyme assay solutions prior to the addition of the nitrocefin. These compounds were dissolved in DMSO and prepared at various concentrations such that the final concentration of DMSO was 1% during the pre-incubation. The reaction was initiated by the addition of the pre-incubated enzyme-cyclobutanone solution (90 μL) to a solution of nitrocefin in buffer (10 μL). Enzymatic activity was determined using the initial rate of increase in absorbance at 482 nm

[12] = target: T4, VIM-2 metallo-β-lactamase (Pseudomonas aeruginosa, UniProt Q9K2N0); experiment: Inhibition of β-lactamases, nitrocefin hydrolysis; assay type: biochemical; details: nitrocefin 100 μM, 10 min pre-incubation; read-out: IC50 VIM-2 (Class B)
T4 construct: made in house; host or cells: Escherichia coli BL21 (DE3) pLysS carrying pNOR2001
Protocol: VIM-2 metallo-β-lactamase was expressed in Escherichia coli BL21 (DE3) pLysS carrying pNOR2001 (a generous gift from P. Nordmann, Université Paris XI, France) and purified as reported by Poirel et al. (Antimicrob. Agents Chemother. 2000, 44, 891-897). The homogeneity and molecular weight of the mature VIM-2 (29.7 kDa) was determined by SDS-PAGE (Laemmli, U. K. Nature 1970, 227, 680-685). Enzyme concentration was determined from the absorbance at 280 nm (εEM=32,000 M^−1 cm^−1).
as §5, §6

[13] = target: class B β-lactamase NDM-1 (Klebsiella pneumoniae, UniProt C7C422); experiment: Inhibition of β-lactamases, nitrocefin hydrolysis; assay type: biochemical; details: 15 μM nitrocefin
Chain of class B β-lactamase NDM-1 (C7C422 29-270, looked up): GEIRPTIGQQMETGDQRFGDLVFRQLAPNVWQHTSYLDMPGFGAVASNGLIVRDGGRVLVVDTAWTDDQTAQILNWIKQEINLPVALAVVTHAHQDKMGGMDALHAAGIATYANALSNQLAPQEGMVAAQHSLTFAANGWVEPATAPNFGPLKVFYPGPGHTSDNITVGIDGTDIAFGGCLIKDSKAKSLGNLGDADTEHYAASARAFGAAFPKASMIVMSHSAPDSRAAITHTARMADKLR

[14] = target: T5, class C β-lactamase GC1 (Enterobacter cloacae, UniProt Q59401); experiment: Inhibition of β-lactamases, nitrocefin hydrolysis; assay type: biochemical; details: nitrocefin 100 μM, 10 min pre-incubation
T5 construct: made in house; host or cells: Escherichia coli AS226-51 harbouring pCS100
T5 sequence (Q59401 entry or part of it): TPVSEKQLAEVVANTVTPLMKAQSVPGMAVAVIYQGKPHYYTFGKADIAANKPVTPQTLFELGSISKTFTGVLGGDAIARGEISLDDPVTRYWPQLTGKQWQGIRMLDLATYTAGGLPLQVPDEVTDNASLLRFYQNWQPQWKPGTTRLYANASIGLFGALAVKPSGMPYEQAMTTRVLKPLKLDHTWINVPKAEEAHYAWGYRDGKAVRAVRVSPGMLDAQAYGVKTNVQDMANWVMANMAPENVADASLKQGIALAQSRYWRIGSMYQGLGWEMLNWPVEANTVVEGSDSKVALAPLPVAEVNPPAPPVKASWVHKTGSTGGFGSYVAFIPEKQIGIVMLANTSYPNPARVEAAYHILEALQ
Protocol: GC1 β-lactamase was purified from Escherichia coli AS226-51 harbouring pCS100, which was a generous gift from Prof. M. Nukaga (Josai International University, Japan). The cell culture was harvested and subjected to a stringent periplasmic lysis protocol according to Crichlow et al. (Biochemistry 1999, 38, 10256-10261.). Purification proceeded similarly to Nukaga et al. (J. Biol. Chem. 2004, 279, 9344-9352.) with cation exchange chromatography (CM Sephadex C-50) equilibrated with 10 mM sodium phosphate buffer (pH 6), followed by elution with a stepwise gradient of increasing NaCl concentration. Fractions containing β-lactamase activity were then applied to a phenylboronate column (MoBiTec, Germany), equilibrated with 20 mM triethanolamine.HCl, pH 7.0, 0.5 M NaCl. The column was washed with the same buffer and then eluted with sterile 0.5 M borate buffer, pH 7.0, 0.5 M NaCl. Active fractions eluted from the phenylboronate column were analyzed for purity via SDS-PAGE, pooled, and concentrated before buffer exchange to 100 mM sodium phosphate, pH 7.0.
(§8) Assay conditions for IC50 determinations involved enzyme concentrations ranging between 2 and 6 nM. […]
as §6

[15] = target: T6, class D β-lactamase OXA-10 (Pseudomonas aeruginosa, UniProt P14489); experiment: Inhibition of β-lactamases, nitrocefin hydrolysis; assay type: biochemical
T6 construct: indicating a post-translational deletion of a 20 amino acid signal peptide; made in house; host or cells: Escherichia coli BL21 (DE3), pET24a-blaOXA-10, purified from culture supernatant
T6 sequence (P14489 20-266): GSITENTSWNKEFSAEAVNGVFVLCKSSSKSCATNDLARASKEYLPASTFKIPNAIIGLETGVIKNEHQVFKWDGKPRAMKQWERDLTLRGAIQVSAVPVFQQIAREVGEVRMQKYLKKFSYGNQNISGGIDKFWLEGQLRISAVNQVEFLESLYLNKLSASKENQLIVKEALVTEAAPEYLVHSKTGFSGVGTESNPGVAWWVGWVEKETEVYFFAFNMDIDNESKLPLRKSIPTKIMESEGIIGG
Excerpt: OXA-10 β-lactamase was expressed and purified using a modified protocol of that reported by Golemi et al. (J. Am. Chem. Soc. 2000, 122, 6132-6133). The pET24a plasmid with the blaOXA-10 gene insert, a kind gift from Prof. S. Mobashery (Notre Dame University), was transformed into Escherichia coli BL21 (DE3) and induced with IPTG. Purification of the enzyme was achieved by the addition of ammonium sulfate to the induced culture supernatant. The protein precipitate collected (50-70% ammonium sulfate saturation) was dissolved and dialyzed against 10 mM Tris.SO4 buffer, pH 7.5, and further purified with a DE52 cellulose column (Whatman, UK) equilibrated with the same buffer. The material bound to the column was washed with 10 mM Tris.SO4 buffer, pH 7.5, followed by an elution with a K2SO4 gradient (0-100 mM). Protein fractions containing nitrocefin-hydrolyzing activity were concentrated and purity analyzed by SDS-PAGE. A molecular weight of 27,490 Da for OXA-10 was determined by ESI MS, indicating a post-translational deletion of a 20 amino acid signal peptide.
as §8, §6

[16] = target: class D β-lactamase OXA-45 (Pseudomonas aeruginosa, UniProt Q7WZC7); experiment: Inhibition of β-lactamases, nitrocefin hydrolysis; assay type: biochemical
Chain of class D β-lactamase OXA-45 (Q7WZC7 entry or part of it): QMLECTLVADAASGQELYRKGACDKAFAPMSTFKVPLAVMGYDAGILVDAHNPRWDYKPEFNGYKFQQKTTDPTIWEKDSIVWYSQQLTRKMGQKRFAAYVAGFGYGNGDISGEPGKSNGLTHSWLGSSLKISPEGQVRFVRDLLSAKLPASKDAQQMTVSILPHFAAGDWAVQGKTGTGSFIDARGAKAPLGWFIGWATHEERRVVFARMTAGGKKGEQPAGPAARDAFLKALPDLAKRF
Protocol: OXA-45 β-lactamase was purified in the laboratory of Prof. T. Walsh (University of Bristol, UK) according to the method published (Toleman, M. A.; Rolston, K.; Jones, R. N.; Walsh, T. R. Antimicrob. Agents Chemother. 2003, 47, 2859-2863) and provided to this laboratory as a kind gift.
as §5, §7

[17] = target: T1, IMP-1; experiment: Inhibition of IMP-1-catalyzed hydrolysis of meropenem in vitro (310 nm); assay type: biochemical
[18] = target: MBL CfiA (Aeromonas hydrophila, UniProt P26918); details: cited from earlier work
Chain of MBL CfiA (P26918 28-254): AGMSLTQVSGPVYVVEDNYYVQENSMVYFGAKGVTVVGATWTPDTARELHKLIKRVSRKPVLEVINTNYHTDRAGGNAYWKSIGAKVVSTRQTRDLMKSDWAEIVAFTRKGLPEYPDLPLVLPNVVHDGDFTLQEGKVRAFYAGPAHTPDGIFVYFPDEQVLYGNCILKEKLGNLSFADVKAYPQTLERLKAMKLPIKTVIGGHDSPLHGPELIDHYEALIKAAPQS

SMILES: O=C(Cc1cccs1)N[C@@H]1C(=O)N2C(C(=O)O)=C(CSC(=O)c3ccccc3)CS[C@H]12 [CMPD A, (6R,7R)-3-(benzoylthiomethyl)-8-oxo-7-(2-(thiophen-2-yl)acetamido)-5-thia-1-azabicyclo[4.2.0]oct-2-ene-2-carboxylic acid]
- FIC [1]: 0.2539
- FIC [2]: 0.5625
- FIC [3]: 0.625
- FIC [4]: 0.25
- FIC [5]: 0.2539
- FIC [6]: 0.1289
- FIC [7]: 0.1328
- effect on sensitivity of IMP-1 to proteolysis by trypsin [8]: increases the sensitivity of the protein to proteolysis by trypsin
- β-lactamase inhibition [9]: good inhibitor

SMILES: O=C(Cc1ccc(F)cc1)N[C@@H]1C(=O)N2C(C(=O)O)=C(CSC(=O)c3ccccc3)CS[C@H]12 [drawing 28]
- IC50 [10]: 104 µM
- IC50 ([11]; nitrocefin 100 μM, 10 min pre-incubation, read-out: IC50 IMP-1 (Class B)): 8.2 µM
- IC50 [12]: 4.2 µM
- IC50 [13]: 40 µM
- IC50 [14]: 11 µM
- IC50 [15]: 6.3 µM

SMILES: O=C(Cc1cccs1)N[C@@H]1C(=O)N2C(C(=O)O)=C(CSC(=O)c3ccccc3)CS[C@H]12 [drawing 27]
- IC50 [10]: 71 µM
- IC50 [11]: 3.1 µM
- IC50 [12]: 1.8 µM
- IC50 [13]: 33 µM
- IC50 [14]: 140 µM
- IC50 [15]: 8.1 µM
- IC50 [16]: 24 µM

SMILES: CO[C@@]1(NC(=O)C(C(=O)O)c2ccc(O)cc2)C(=O)N2C(C(=O)O)=C(CSc3nnnn3C)CO[C@@H]21 (stereo partly shown) [moxalactam]
- performance as inhibitor [17]: poor performance
- protection of meropenem from IMP-1-catalyzed hydrolysis in vitro ([17]; IMP-1 12 nM, meropenem 200 μM, test substance 100 μM, 310 nm): poor protection
- incubation required for full inactivation of CfiA [18]: 14 h
